The values that follow come from PubChem BioAssay AID179 (DTP/NCI, 2004).

The source made the active and inactive calls.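 The calls were made as follows: active = compounds giving half or more protection of infected cells from virus-caused growth loss, again on retest; inactive = the rest.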 Where a SMILES comes first, the peptide text is derived from it.

This assay concerns CEM cells HIV-1 protection, formazan growth assay. In words: NCI AIDS Antiviral Assay. The following applies: for IC50: measured here: growth of uninfected CEM cells. An outline of the steps: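 Protection of CEM cells against HIV-1 measured as cell growth via soluble formazan read-out, with five concentrations tested on both infected and uninfected cells; failure to protect may reflect toxicity.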

As to `Cc1cnc(NCCCN(C)C)c2c1[nH]c1ccc3ccccc3c12`, the EC50 (in general, the concentration giving half of the maximal effect) was above 2 µM and the 50% inhibitory concentration (IC50) (usually the point on the concentration scale where inhibition reaches its midpoint) was determined as 0.316 µM.

Regarding `CC(SC(C)C(=O)N/N=C/c1c[nH]c2ccccc12)C(=O)N/N=C\c1c[nH]c2ccccc12` (stereo not drawn), the EC50 is above 200 µM and the 50% inhibitory concentration (IC50) amounted to 120 µM.

`CCCCC(=O)NS(=NC(=O)c1ccccc1)C(Cl)(Cl)Cl` (stereo not drawn): the EC50 is above 200 µM and the half-maximal inhibitory concentration (IC50) was above 200 µM.

On to `CN(C)c1ccc(/C=C(\NC(=O)c2ccccc2)C(=O)NCC(=O)O)cc1`, for which the EC50 was above 100 µM and the IC50 is above 100 µM.

On to `COC(=O)CCc1ccc2c(c1)CC1(C2)Cc2ccc(CCC(=O)OC)cc2C1`, for which the EC50 is above 200 µM and the IC50 came to 57.5 µM.

Consider `C/C(CC(=O)Nc1ccc(Cl)c(Cl)c1)=N/NC(=O)C[n+]1ccccc1`, for which the EC50 is above 162 µM and the IC50 is above 162 µM.

On to `CC1(C)C(=O)N2CCSC21` (stereo not drawn), for which the EC50 is above 16.6 µM and the 50% inhibitory concentration (IC50) is above 16.6 µM.

For `COc1cc(N=Nc2ccccc2C(=O)O)cc(/C=N\NNC(N)=S)c1O`, the EC50 was above 67.6 µM and the IC50 was 32.4 µM.

As to `CN1C(=O)C(=O)n2c(cc3ccccc32)C1=O`, the EC50 was above 6.31 µM and the IC50 is above 6.31 µM.

Turning to `c1ccc2[nH]c(SSSSc3nc4ccccc4[nH]3)nc2c1`, the EC50 was above 200 µM and the concentration for half-maximal inhibition (IC50) is above 200 µM.

Turning to `N#Cc1nn(C2OC(COC(=O)c3ccccc3)C(OC(=O)c3ccccc3)C2OC(=O)c2ccccc2)c2nc[nH]c(=O)c12` (stereo not drawn), the EC50 is above 200 µM and the IC50 stood at 74.1 µM.

As for `CCN1C[C@]2(COC)C(O)CC(OC)C34[C@@H]5C[C@@]6(O)C(O)[C@@H]5[C@](O)(C(O)[C@@H]6OC)[C@@H](C(OC)[C@@H]32)[C@H]14` (stereo partly drawn), the outcome was inactive.

For `CCn1c(=O)c2c(=O)[nH][nH]c2c2ccccc21`, the EC50 is above 200 µM and the half-maximal inhibitory concentration (IC50) was above 200 µM.

With `CCCCC[C@H]1CCCCCCCCCC(=O)OC2C(O[C@@H]3OC(C)[C@H](OC(=O)[C@@H](C)CC)C(O[C@@H]4OC(C)[C@H](O)C(O)[C@@H]4O)[C@@H]3OC(=O)[C@H](C)CC)[C@H](OC3C(O)[C@@H](O)C(C)O[C@H]3O1)OC(CO)[C@H]2O` (stereo partly drawn), the EC50 was above 200 µM and the IC50 worked out at 11.2 µM.

For `COC(=O)c1ccc(CSc2ccc(N)cc2)cc1`, the result was inactive.

For the compound `CCSC1=CC(Cc2ccc(OC)cc2)N(C(=O)OC)C1` (stereo not drawn), the EC50 was above 85.1 µM and the 50% inhibitory concentration (IC50) was 60.3 µM.

As for `C=C[C@]1(C)CC(=O)C(C(C)C=O)[C@]12C(=O)Oc1cccc(C)c1C2=O` (stereo partly drawn), the EC50 was above 200 µM and the half-inhibitory concentration (IC50) was 13.5 µM.

For the compound `Cc1cc(C)c(-c2noc(-c3ccccc3)c2C2=NCCN2)c(C)c1`, the result was inactive.

As to `O=S(=O)(O)c1ccc(O)c(N=Nc2ccc(S(=O)(=O)c3ccc(N=Nc4cc(S(=O)(=O)O)ccc4O)cc3)cc2)c1`, the EC50 was above 100 µM and the half-inhibitory concentration (IC50) is above 100 µM.

`COC(=O)Cc1ccc(COC(=O)c2cc(C(=CCC[C@H]3CC[C@@]4(C)[C@@H](CC[C@@H]5[C@@H]4CC[C@]4(C)[C@@H]([C@H](C)CCCC(C)C)CC[C@@H]54)C3)c3cc(Cl)c(OCc4ccc(CC(=O)OC)cc4)c(C(=O)OCc4ccc(CC(=O)OC)cc4)c3)cc(Cl)c2OCc2ccc(CC(=O)OC)cc2)cc1`: the EC50 was above 200 µM and the IC50 was above 200 µM.

Take `ClCCCc1ccccc1C1=NCCc2ccccc21`: the EC50 is above 200 µM and the IC50 came out at 5.25 µM.

Take `Cc1nn(C(=O)c2ccccc2O)c2c1C(c1ccccc1O)SC(N)=N2` (stereo not drawn): the EC50 was above 2 µM and the IC50 stood at 0.933 µM.

Regarding `COC(=O)CC1NC(=O)[C@]1(C)[C@H](C)O` (stereo partly drawn), the EC50 was above 1230 µM and the concentration for half-maximal inhibition (IC50) is above 1230 µM.

With `OCC1=C[C@@H](O)[C@@H]2C=CO[C@@H](OC3OC(CO)C(O)C(O)C3O)[C@H]12` (stereo partly drawn), the EC50 is above 724 µM and the half-maximal inhibitory concentration (IC50) was above 724 µM.

In the case of `Cc1cc2c(C=O)[nH]nc2c(C#N)c1C`, the outcome was inactive.

Regarding `c1ccc(CC2COC(c3cccs3)=N2)cc1` (stereo not drawn), the EC50 was above 200 µM and the 50% inhibitory concentration (IC50) amounted to 126 µM.

Consider `C1=C2/CC[C@H](Sc3ccccc3)C2C2(CCCCC/1)OCCO2` (stereo partly drawn), for which the EC50 was above 200 µM and the half-inhibitory concentration (IC50) came to 38.9 µM.

With `Nc1ccc2ncc(Nc3ccc(F)cc3)nc2c1`, the EC50 is above 269 µM and the IC50 worked out at 135 µM.

`Cc1nn(C(=O)c2ccc(Cl)cc2)c2c1C(c1cccc([N+](=O)[O-])c1)SC(N)=N2` (stereo not drawn): the EC50 is 126 µM and the IC50 turned out to be 138 µM.

`CN(/N=C/c1ccc(C(=O)O)cc1)C1=NCCCCN1`: the EC50 is above 200 µM and the IC50 was above 200 µM.

For the compound `CNC(=S)SC1=NS(=O)(=O)c2ccccc2N1`, the EC50 is above 234 µM and the IC50 turned out to be 174 µM.

For `CN1CCN(c2n[nH]c(=O)c3c2nnn3Cc2ccccc2)CC1`, the EC50 is above 200 µM and the IC50 was above 200 µM.

As to `Cn1c(=O)c2ncnnc2n(C)c1=O`, the EC50 is above 200 µM and the IC50 was determined as 93.3 µM.

On to `c1ccc(Cn2c(-c3ccc(-c4ccccc4)cc3)cc3ccccc32)cc1`, for which the EC50 is above 100 µM and the IC50 is above 100 µM.

As for `COc1ccc(N2C(=O)C3c4[nH]c5ccccc5c4C4CCCCCCC4C3C2=O)cc1` (stereo not drawn), the EC50 is above 8.71 µM and the IC50 was above 8.71 µM.

On to `C(=C\c1ccc(-c2cn3cc(/C=C/C=N/NC4=NCCN4)ccc3n2)cc1)/C=N/NC1=NCCN1`, for which the result was inactive.

As for `NC(=O)COc1c(Br)cc(Br)cc1Br`, the EC50 was above 34.7 µM and the half-maximal inhibitory concentration (IC50) was above 34.7 µM.

On to `COc1cc(CCNC(C)=O)cc(OC)c1OC`, for which the EC50 was above 200 µM and the concentration for half-maximal inhibition (IC50) is above 200 µM.

In the case of `COc1cc(C)cc2c1C(=O)C(NC(C)=O)=CC2=O`, the EC50 was above 200 µM and the half-inhibitory concentration (IC50) was found to be 11.7 µM.

With `O=C(CC1(O)C(=O)Nc2c(Cl)cc(Cl)cc21)c1ccco1` (stereo not drawn), the EC50 was above 398 µM and the concentration for half-maximal inhibition (IC50) stood at 83.2 µM.

In the case of `CCOC(=O)c1cc2c(nc1N)-c1ncccc1CC2`, the EC50 is above 19.5 µM and the 50% inhibitory concentration (IC50) is 0.219 µM.

`COc1cc(O)c2cc1Oc1ccc(cc1)CC1c3cc(c(OC)cc3CCN1C)Oc1c(OC)c(OC)c(OC)c3c1[C@H](C2)N(C)CC3` (stereo partly drawn): the result was inactive.

Turning to `Nc1cc(S(N)(=O)=O)ccc1SSc1ccc(S(N)(=O)=O)cc1N`, the EC50 is 21.4 µM and the half-maximal inhibitory concentration (IC50) came to 63.1 µM.

Regarding `O=c1cc(/C=C/c2ccccc2)c2ccc(O/C(=C\c3ccccc3)c3nc4ccccc4c(=O)o3)cc2o1`, the outcome was inactive.

For `OC(Cc1ccc2ccccc2n1)(C(F)(F)F)C(F)(F)F`, the EC50 was above 200 µM and the half-maximal inhibitory concentration (IC50) is above 200 µM.

As to `Cc1nnc2sc(N/N=C/c3ccccc3)nn12`, the EC50 is above 200 µM and the IC50 is above 200 µM.

`CCCCS(=O)CCC(N)P(=O)(O)O` (stereo not drawn): the EC50 was above 200 µM and the IC50 is above 200 µM.

On to `O=c1[nH]n(Cc2ccccc2)c2ccc([N+](=O)[O-])cc12`, for which the EC50 is above 200 µM and the IC50 turned out to be 25.7 µM.

As to `COc1ccc(OC)c(NC(=O)C2=C(C)NC(C)=C(C(=O)Nc3cc(OC)ccc3OC)C2c2ccccc2)c1`, the result was inactive.

For `Cc1ccc(C2C(Cl)C(=O)N2NC(=O)c2ccc(N)cc2)cc1` (stereo not drawn), the EC50 is above 200 µM and the IC50 is 13.5 µM.

Regarding `N#C/C(=C\c1cc(F)cc(F)c1)c1ccccn1`, the EC50 was above 200 µM and the half-maximal inhibitory concentration (IC50) came to 26.3 µM.

As to `CN1CCN(C(=S)N(C(=O)c2ccco2)C2CCCCC2)CC1`, the EC50 is above 741 µM and the IC50 is 631 µM.

Regarding `C1C[S+]2CC[S+]1CC2`, the EC50 was above 200 µM and the half-maximal inhibitory concentration (IC50) is above 200 µM.

On to `CC(C)CC(NC(=O)C(CO)NC(=O)C(CCCCN)NC(=O)C(CCCCN)NC(=O)C(NC(=O)CNC(=O)C(C)NC(=O)C(CCCN=C(N)N)NC(=O)C(NC(=O)C(N)C(C)C)C(C)C)C(C)C)C(=O)O` (stereo not drawn) (H-VVRAGVKKSL-OH; configuration not given here), for which the outcome was inactive.

For `O=c1[nH]c2ccccc2c(O)c1/C=N/C(=S)NC1CCCCC1`, the EC50 is above 200 µM and the concentration for half-maximal inhibition (IC50) was above 200 µM.

In the case of `CCc1c(O)c2c([nH]c1=O)SC(C)(C)CC2=NCC(C)C`, the EC50 is above 11.5 µM and the concentration for half-maximal inhibition (IC50) was above 11.5 µM.

Turning to `NC1CCC2(O)c3ccccc3C2C1` (stereo not drawn), the EC50 was above 200 µM and the IC50 is above 200 µM.

With `Cc1c(NC(=O)CSC(=S)N2CCN(Cc3ccccc3)CC2)c(=O)n(-c2ccccc2)n1C`, the result was inactive.

Turning to `CCOC(=O)CCc1c(C)c2ccc(O)cc2oc1=O`, the EC50 is above 200 µM and the half-maximal inhibitory concentration (IC50) was above 200 µM.

Consider `CN1CCCC2(CCCc3ccccc32)C1` (stereo not drawn), for which the EC50 was above 1000 µM and the concentration for half-maximal inhibition (IC50) was 257 µM.

With `NC(Cc1ccc[se]1)C(=O)O` (stereo not drawn), the EC50 was above 200 µM and the IC50 was above 200 µM.

`O=C1CCCc2ccc3c(c21)CC1(Cc2ccccc2C1)C3`: the EC50 was above 200 µM and the half-maximal inhibitory concentration (IC50) worked out at 25.1 µM.

Consider `NC(CCSCCSCCC(N)C(=O)O)C(=O)O` (stereo not drawn), for which the EC50 was above 3.39 µM and the IC50 is above 3.39 µM.

Turning to `NCCCC[C@H](NC(=O)[C@H](CS)NC(=O)[C@@H](N)Cc1cnc[nH]1)C(=O)N[C@@H](Cc1ccc(O)cc1)C(=O)N[C@@H](Cc1c[nH]c2ccccc12)C(=O)N[C@@H](Cc1c[nH]c2ccccc12)C(N)=O`, the EC50 was above 200 µM and the IC50 is above 200 µM.

As to `O=C1c2cccc3cccc(c23)C(=O)N1Cc1ccccc1`, the EC50 was above 200 µM and the half-inhibitory concentration (IC50) was determined as 61.7 µM.

In the case of `COc1cccc(NC(=O)CC(=O)N2N=C(n3ccc4ccccc43)CC2c2ccccc2)c1` (stereo not drawn), the outcome was inactive.

For `O=C(CC1(O)C(=O)Nc2ccc([N+](=O)[O-])cc21)c1ccc2ccccc2c1` (stereo not drawn), the EC50 was above 100 µM and the IC50 is above 100 µM.

In the case of `CC1Oc2c(c(O)cc3oc(=O)cc(-c4ccccc4)c23)C(=O)C1C` (stereo not drawn), the result was inactive.

On to `C=CCCCC1CCCNC1=S` (stereo not drawn), for which the EC50 was above 275 µM and the IC50 was above 275 µM.

As for `Cn1c2ccccc2c2c(-c3ccccc3)cc3c(c21)C(=O)C=CC3=O`, the EC50 was above 100 µM and the half-inhibitory concentration (IC50) is 5.5 µM.
